Read-outs that look alike come from different tables or passages of the source.
Tested on: transcription from VEGF promoter
Assay: VEGF transcription-suppressing activity, VEGF-PLAP reporter in U251/1-8 cell
Type: cell-based
Conditions: Homo sapiens, U-251, U251/1-8 cell, PLAP activity, low oxygen 18 hours
Outline: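 U251 glioma clone stably carrying a ~2.3 kb human VEGF promoter–secreted PLAP reporter, 4×10^4 cells/well, exposed to 3-fold dilutions of compound for 18 h under low oxygen. Supernatant PLAP read by chemiluminescence at pH 10.0; IC50 = 50% suppression, normoxia 0%, hypoxia 100%.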

**Q.** How did the IC50 (read-out: IC50 values of VEGF transcription-suppressing activity (range given)) turn out when `CCC(O)C(C)C1OC1CC(C)/C=C/C=C(\C)C1OC(=O)CC(O)CCC(C)(O)C(OC(C)=O)/C=C/C1C` (centres unmarked) [11107B] was run?
**A.** 1 to 100 nM

**Q.** And the IC50 (read-out: VEGF transcription suppressing activity (IC50: nM))?
**A.** 1.8 nM

— patent US7667052B2 (Eisai R&D Management Co., Ltd., priority 2003, dated 2010)
